Test results published in BigSolDB 2.1.

CCOC(=O)[C@H](CCc1ccccc1)N[C@@H](C)C(=O)N1CCC[C@H]1C(=O)O.O=C(O)/C=C\C(=O)O
solubility (mole fraction)
Conditions	273.15 K	278.15 K	283.15 K	288.15 K	293.15 K	298.15 K	303.15 K	308.15 K	313.15 K	318.15 K
in acetone	0.00118	0.00139	0.00176	0.0021	0.00243	0.00302	0.0038	0.00451	0.0054	0.00651
in acetonitrile	0.000339	0.000452	0.000569	0.000716	0.0009	0.00117	0.00153	0.00204	0.00261	0.00334
in ethanol	0.000616	0.000761	0.000998	0.00133	0.00177	0.00226	0.00292	0.00366	0.00449	0.00536
in ethyl acetate	0.0013	0.00171	0.00231	0.00304	0.00379	0.00471	0.00576	0.00689	0.00796	0.00941
in isopropanol	0.000144	0.000184	0.000242	0.000327	0.000452	0.000605	0.000809	0.00105	0.00133	0.00176
in n-octanol	0.000311	0.000406	0.000509	0.000642	0.00083	0.00105	0.00131	0.00167	0.00206	0.00256

CCOC(=O)[C@H](CCc1ccccc1)N[C@@H](C)C(=O)O
solubility (mole fraction)
Conditions	273.15 K	278.15 K	283.15 K	288.15 K	293.15 K	298.15 K	303.15 K	308.15 K	313.15 K	318.15 K
in acetone	0.00387	0.00426	0.00468	0.00515	0.00568	0.00627	0.007	0.0078	0.00868	0.0097
in acetonitrile	0.00012	0.000199	0.000288	0.000427	0.000608	0.000907	0.00129	0.00183	0.00255	0.00349
in ethanol	0.00273	0.00281	0.00294	0.00312	0.00334	0.0036	0.00396	0.00436	0.00489	0.00545
in ethyl acetate	0.00898	0.0092	0.00951	0.00991	0.0104	0.0109	0.0115	0.0123	0.0131	0.014
in isopropanol	0.000921	0.00105	0.0012	0.00141	0.00164	0.00191	0.00221	0.00257	0.00298	0.00346
in n-octanol	0.00215	0.00223	0.00233	0.00246	0.00263	0.00284	0.0031	0.00343	0.00378	0.0042
